pEC50: −log10 of the molar value. ≈ marks a conversion by molar mass, not a printed value. Read-outs that look alike come from different tables or passages of the source. Positions of bridges follow the written chain, without caps; N, C: chain ends. Non-standard residues stand in square brackets, D forms with d. Residues, ends and D or L forms follow the SMILES beside them. Lys(N3) = [N-]=[N+]=NCCCC[C@H](N)C(=O)O; R8 = C=CCCCCCC[C@@](C)(N)C(=O)O; Cba = N[C@@H](CC1CCC1)C(=O)O; S5 = C=CCCC[C@](C)(N)C(=O)O; Ahx = NCCCCCC(=O)O; βAla = NCCC(=O)O
Experiments:
HCT116 cells = assay: Lactate dehydrogenase (LDH) release assay; assay type: cell-based
Description: (§1) HCT116 cells were stably transfected with a p53 responsive β-lactamase reporter and expanded in McCoy’s 5 A Medium with 10% fetal bovine serum (FBS), Blasticidin, and Penicillin/Streptomycin and then transferred to 1.5 ml freezing vials and stored under liquid nitrogen in growth media containing 5% DMSO. […] The cells were then seeded into a 384-well plate at a density of 8000 cells per well. […] The final working concentration of DMSO was 0.5%. Lactate dehydrogenase release was detected using the CytoTox-ONE Homogenous Membrane Integrity Assay Kit (Promega), as per the manufacturer’s instructions. Measurements were carried out using the Tecan plate reader. […] Measurements were taken a minimum of three times (biological replicates) and values are reported as geometric means of the replicates.

[1] = Lactate dehydrogenase (LDH) release assay; assay type: cell-based
Description: as §1

[2] = Solubility assay (kinetic solubility, PBS pH 7); assay type: physicochemical; details: pH 7, PBS; for solubility kinetic: pH 7, aqueous buffer, kinetic from dmso stock, read-out: Solubility
Description: The standard reference solutions were prepared by diluting the 10 mM stock in 10:80:10 solution of acetonitrile:methanol:DMSO to 100 µM.
The solubility value is calculated by the following equation:
Solubility [µM] = (Peak area of sample/ Peak area of standard) (Standard concentration)

[3] = Experimental LogD (partition coefficient); details: for logD: not stated, Partition Coeff LogD
[4] = Nanoclick permeability assay
Description: Further, there have been several literature reports[18]–[20] that highlight that the combination of hydrophobic character and positive charge can result in mast cell degranulation (MCD), a potentially fatal condition[18]–[20]. […] The NanoClick assay[22] determines permeability of azide-labeled peptides by combining intracellular copper-free click chemistry with NanoBRET technology. Specifically, if an azido-peptide achieves cytosolic exposure, it will react with a cyclooctyne-decorated Halotag construct that is fused with nanoluciferase. This reaction blocks the click labelling of a subsequently added azido-labeled acceptor dye, thus decreasing the NanoBRET signal in a manner that is target-binding agnostic.
This assay was previously described in detail. The assay was performed in 384-well white assay plates (PerkinElmer CUSG03874) using assay-ready frozen cells that had been transiently transfected with the NanoLuc-HaloTag vector that were thawed at plated in complete media at a density of 6000 cells/ well and incubated at 37 °C 5% CO2 overnight. DIBAC-CA was diluted in assay buffer (OptiMem without phenol red + 1% FBS) and added to cells at a final concentration of 3 μM and incubated at 37 °C 5% CO2 for 1 h. Cells were subsequently centrifuged using a BlueWasher instrument (Blue Cat Bio) to remove the DIBAC-CA solution and washed two times with HBSS (Ca2 + , Mg2 + ). A volume of 30 μL of assay buffer was added back to cell plates. Peptides were serially diluted 4-fold in DMSO with a Hamilton Star apparatus and then delivered into assay plates with an acoustic liquid handler Labcyte ECHO (300 nl, 1% DMSO in-well concentration). After incubating cells with peptide for the desired time (4 or 18 h), the HaloTag ligand, NanoBret618-azide, was added to each well at a final concentration of 10 μM. […] Following addition of NanoBRET Nano-Glo Substrate, donor emission (450 nm) and acceptor emission (610 nm) were measured using an Envision instrument (PerkinElmer).

[5] = 0% FBS 4Hr, read-out: LDH: Cytotoxicity assay: EC50
[6] = 10% FBS 16Hr, read-out: LDH: Cytotoxicity assay: EC50

Structure (SMILES)	LDH: Cytotoxicity assay: % Effect (HCT116 cells) [%]	pEC50 ([1]; LDH: Cytotoxicity assay: EC50)	solubility kinetic [2] [µM]	logD [3]	also measured
CC(C)C[C@@H]1NC(=O)[C@H](C)NC(=O)[C@H](Cc2c[nH]c3ccccc23)NC(=O)[C@H](Cc2ccc(O)cc2)NC(=O)[C@H](CCC(=O)O)NC(=O)[C@](C)(NC(=O)[C@H](Cc2ccccc2)NC(=O)[C@H](CO)NC(=O)[C@@H](NC(=O)CNC(=O)[C@H](CO)NC(=O)CNC(=O)[C@@H](N)CCCCN=[N+]=[N-])[C@@H](C)O)CCCCCCC=CCCC[C@@](C)(C(=O)N[C@@H](CCC(=O)O)C(N)=O)NC(=O)[C@H](CC(C)C)NC1=O [MP-011]	18.05	< 4.30	23 (≈ 43.8 µg/mL)	2.05	–
CC(=O)N[C@@H](CCCCN=[N+]=[N-])C(=O)NCCC(=O)N[C@@H](CC(C)C)C(=O)N[C@H](C(=O)N[C@@H](Cc1ccccc1)C(=O)N[C@]1(C)CCCCCCC=CCCC[C@@](C)(C(=O)N[C@@H](C)C(=O)N[C@@H](C)C(=O)N[C@@H](C)C(=O)O)NC(=O)[C@H](CC2CCC2)NC(=O)[C@H](CCC(N)=O)NC(=O)[C@H](C)NC(=O)[C@H](Cc2c[nH]c3ccccc23)NC(=O)[C@H](Cc2ccc(O)cc2)NC(=O)[C@H](CCC(=O)O)NC1=O)[C@@H](C)O [MP-684]	–	–	–	–	cell entry EC50 [4]: 0.496 µM; pEC50 [1, 5]: < 4.29; pEC50 [1, 6]: < 4.29
CC(=O)N[C@@H](CCCCN=[N+]=[N-])C(=O)N[C@@H](CCCNC(=N)N)C(=O)N[C@@H](CCCNC(=N)N)C(=O)NCCCCCC(=O)N[C@H](C(=O)N[C@@H](CO)C(=O)N[C@@H](Cc1ccccc1)C(=O)N[C@]1(C)CCCCCCC=CCCC[C@@](C)(C(=O)N[C@@H](CCC(=O)O)C(=O)N[C@@H](CC(N)=O)C(=O)N[C@@H](Cc2ccccc2)C(N)=O)NC(=O)[C@H](CC(C)C)NC(=O)[C@H](CC(C)C)NC(=O)[C@H](C)NC(=O)[C@H](Cc2c[nH]c3ccccc23)NC(=O)[C@H](Cc2ccc(O)cc2)NC(=O)[C@H](CCC(=O)O)NC1=O)[C@@H](C)O [MP-083] (Ac-[Lys(N3)]RR[Ahx]TSF[R8]EYWALL[S5]ENF-NH2; staple 8-15)	–	–	4 (≈ 9.73 µg/mL)	2.54	LDH: Cytotoxicity assay % Effect (HCT116 cells): 0.165%; pEC50 ([1]; LDH: Cytotoxicity assay EC50): < 4.30
CC(=O)N[C@@H](CCCNC(=N)N)C(=O)NCCC(=O)N[C@@H](CC(C)C)C(=O)N[C@H](C(=O)N[C@@H](Cc1ccccc1)C(=O)N[C@]1(C)CCCCCCC=CCCC[C@@](C)(C(=O)N[C@@H](CO)C(=O)N[C@@H](C)C(=O)N[C@@H](C)C(N)=O)NC(=O)[C@H](CC2CCC2)NC(=O)[C@H](CCC(N)=O)NC(=O)[C@H](C)NC(=O)[C@H](Cc2c[nH]c3ccccc23)NC(=O)[C@H](Cc2ccc(O)cc2)NC(=O)[C@H](CCC(=O)O)NC1=O)[C@@H](C)O [MP-000]	6.079	< 4.30	2 (≈ 3.94 µg/mL)	2.66	–
CC(=O)N[C@@H](CCCNC(=N)N)C(=O)N[C@@H](CCCNC(=N)N)C(=O)NCCCCCC(=O)N[C@@H](CCCCN=[N+]=[N-])C(=O)N[C@@H](CC(C)C)C(=O)N[C@H](C(=O)N[C@@H](Cc1ccccc1)C(=O)N[C@]1(C)CCCCCCC=CCCC[C@@](C)(C(=O)N[C@@H](CO)C(=O)N[C@@H](C)C(=O)N[C@@H](C)C(N)=O)NC(=O)[C@H](CC2CCC2)NC(=O)[C@H](CCC(N)=O)NC(=O)[C@H](C)NC(=O)[C@H](Cc2c[nH]c3ccccc23)NC(=O)[C@H](Cc2ccc(O)cc2)NC(=O)[C@H](CCC(=O)O)NC1=O)[C@@H](C)O [MP-007]	23.39	< 4.30	37 (≈ 86 µg/mL)	2.83	–
CC(=O)N[C@@H](CCCCN=[N+]=[N-])C(=O)NCCC(=O)N[C@@H](CC(C)C)C(=O)N[C@H](C(=O)N[C@@H](Cc1ccccc1)C(=O)N[C@]1(C)CCCCCCC=CCCC[C@@](C)(C(=O)N[C@@H](CO)C(=O)N[C@@H](C)C(=O)N[C@@H](CCCNC(=N)N)C(N)=O)NC(=O)[C@H](CC2CCC2)NC(=O)[C@H](CCC(N)=O)NC(=O)[C@H](C)NC(=O)[C@H](Cc2c[nH]c3ccccc23)NC(=O)[C@H](Cc2ccc(O)cc2)NC(=O)[C@H](CCC(=O)O)NC1=O)[C@@H](C)O [MP-480] (Ac-[Lys(N3)][βAla]LTF[R8]EYWAQ[Cba][S5]SAR-NH2; staple 6-13)	–	< 4.30	–	–	cell entry EC50 ([4]; Nanoclick permeability assay EC50): 0.1 µM
CC(=O)N[C@@H](CCCCN=[N+]=[N-])C(=O)NCCC(=O)N[C@@H](CC(C)C)C(=O)N[C@H](C(=O)N[C@@H](Cc1ccccc1)C(=O)N[C@]1(C)CCCCCCC=CCCC[C@@](C)(C(=O)N[C@@H](C)C(=O)N[C@@H](C)C(=O)N[C@@H](CCC(=O)O)C(=O)N[C@@H](C)C(=O)N[C@@H](C)C(=O)N[C@H](C)C(N)=O)NC(=O)[C@H](CC2CCC2)NC(=O)[C@H](CCC(N)=O)NC(=O)[C@H](C)NC(=O)[C@H](Cc2c[nH]c3ccccc23)NC(=O)[C@H](Cc2ccc(O)cc2)NC(=O)[C@H](CCC(=O)O)NC1=O)[C@@H](C)O [MP-833] (Ac-[Lys(N3)][βAla]LTF[R8]EYWAQ[Cba][S5]AAEAA[dA]-NH2; staple 6-13)	–	–	154 (≈ 343 µg/mL)	–	cell entry EC50 [4]: 1.02 µM; LDH: Cytotoxicity assay % Effect (HCT116 cells; 0% FBS 4Hr): 3.813%; LDH: Cytotoxicity assay % Effect (HCT116 cells; 10% FBS 16Hr): 10.68%; pEC50 ([1]; 0% FBS 4Hr, read-out: LDH: Cytotoxicity assay EC50): < 4.29; pEC50 ([1]; 10% FBS 16Hr, read-out: LDH: Cytotoxicity assay EC50): < 4.29
CC(=O)N[C@@H](CCCCN=[N+]=[N-])C(=O)N[C@@H](CCCCN)C(=O)N[C@@H](CCCCN)C(=O)NCCCCCC(=O)N[C@H](C(=O)N[C@@H](CO)C(=O)N[C@@H](Cc1ccccc1)C(=O)N[C@]1(C)CCCCCCC=CCCC[C@@](C)(C(=O)N[C@@H](CCC(=O)O)C(=O)N[C@@H](CC(N)=O)C(=O)N[C@@H](Cc2ccccc2)C(N)=O)NC(=O)[C@H](CC(C)C)NC(=O)[C@H](CC(C)C)NC(=O)[C@H](C)NC(=O)[C@H](Cc2c[nH]c3ccccc23)NC(=O)[C@H](Cc2ccc(O)cc2)NC(=O)[C@H](CCC(=O)O)NC1=O)[C@@H](C)O [MP-082] (Ac-[Lys(N3)]KK[Ahx]TSF[R8]EYWALL[S5]ENF-NH2; staple 8-15)	–	–	2 (≈ 4.75 µg/mL)	2.46	pEC50 ([1]; LDH: Cytotoxicity assay EC50): < 4.30
CC(=O)N[C@@H](CCCCN=[N+]=[N-])C(=O)NCCC(=O)N[C@@H](CC(C)C)C(=O)N[C@H](C(=O)N[C@@H](Cc1ccccc1)C(=O)N[C@]1(C)CCCCC#CC#CCCC[C@@](C)(C(=O)N[C@@H](C)C(=O)N[C@@H](C)C(=O)N[C@@H](C)C(=O)N[C@@H](C)C(=O)N[C@@H](C)C(=O)N[C@H](C)C(N)=O)NC(=O)[C@H](CC2CCC2)NC(=O)[C@H](CCC(N)=O)NC(=O)[C@H](C)NC(=O)[C@H](Cc2c[nH]c3ccccc23)NC(=O)[C@H](Cc2ccc(O)cc2)NC(=O)[C@H](CCC(=O)O)NC1=O)[C@@H](C)O [MP-616]	–	–	–	2.67	LDH: Cytotoxicity assay: % Effect (HCT116 cells; 0% FBS 4Hr): 12.87%; LDH: Cytotoxicity assay: % Effect (HCT116 cells; 10% FBS 16Hr): 8.138%; pEC50 [1, 5]: < 4.29; pEC50 [1, 6]: < 4.29
CC(=O)N[C@@H](CCCNC(=N)N)C(=O)NCCC(=O)N[C@@H](CCCCN=[N+]=[N-])C(=O)N[C@@H](CC(C)C)C(=O)N[C@H](C(=O)N[C@@H](Cc1ccccc1)C(=O)N[C@]1(C)CCCCCCC=CCCC[C@@](C)(C(=O)N[C@@H](CO)C(=O)N[C@@H](C)C(=O)N[C@@H](C)C(N)=O)NC(=O)[C@H](CC2CCC2)NC(=O)[C@H](CCC(N)=O)NC(=O)[C@H](C)NC(=O)[C@H](Cc2c[nH]c3ccccc23)NC(=O)[C@H](Cc2ccc(O)cc2)NC(=O)[C@H](CCC(=O)O)NC1=O)[C@@H](C)O [MP-4004]	7.573	< 4.30	–	–	Solubility [2]: Poorly Behaved; Partition Coeff LogD [3]: Poorly Behaved
